Measurements from patent US8513232B2, “Substituted spirocyclic piperidine derivatives as histamine-3 (H3) receptor ligands” (Cephalon, Inc., priority 2008, dated 2013).
Read-outs that look alike come from different tables or passages of the source.

What was measured:
[1] = biological target: T1, human H3 receptor (Homo sapiens, UniProt Q9Y5N1); experiment: Human H3 radioligand binding ([3H]-N-alpha-methylhistamine, SPA)
T1 construct: expressed in transfected cells
Method in brief: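 Compounds (0.01 nM-30 μM) competed with approximately 1 nM [3H]-N-alpha-methylhistamine for human H3 receptor in membranes of stably transfected CHO cells, 10 μg protein per well, in Tris-HCl pH 7.4/MgCl2/BSA buffer for 4 h at room temperature. Bound radioligand measured by scintillation proximity; 10 μM clobenpropit gave non-specific binding.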

[2] = biological target: T2, rat histamine H3 receptor (Rattus norvegicus, UniProt Q9QYN8); experiment: Rat H3 radioligand binding ([3H]-N-alpha-methylhistamine, SPA)
T2 construct: encoding the entire 445-amino-acid rat histamine H3 receptor; expressed in transfected cells; membrane preparation
Method in brief: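 SPA-bead binding assay using [3H]-N-alpha-methylhistamine (approximately 1 nM final) with test compounds from 0.01 nM to 30 μM. Rat H3 receptor membranes came from stably transfected CHO-A3 cells; incubation ran 4 h at room temperature, in the dark, in Tris pH 7.4 buffer with MgCl2 and BSA. Clobenpropit (10 μM) gave non-specific binding.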

[3] = Table C, human H3 binding, read-out: Human H3 Ki
[4] = Table C, rat H3 binding, read-out: Rat H3 Ki
[5] = human H3 binding, Table D, read-out: Human H3 Ki
[6] = rat H3 binding, Table D, read-out: Rat H3 Ki
[7] = Human H3 binding, Table B, Examples 136-362, read-out: hum H3 binding Ki
[8] = Rat H3 binding, Table B, Examples 136-362, read-out: rat H3 binding Ki

T1 sequence (Q9Y5N1 whole entry): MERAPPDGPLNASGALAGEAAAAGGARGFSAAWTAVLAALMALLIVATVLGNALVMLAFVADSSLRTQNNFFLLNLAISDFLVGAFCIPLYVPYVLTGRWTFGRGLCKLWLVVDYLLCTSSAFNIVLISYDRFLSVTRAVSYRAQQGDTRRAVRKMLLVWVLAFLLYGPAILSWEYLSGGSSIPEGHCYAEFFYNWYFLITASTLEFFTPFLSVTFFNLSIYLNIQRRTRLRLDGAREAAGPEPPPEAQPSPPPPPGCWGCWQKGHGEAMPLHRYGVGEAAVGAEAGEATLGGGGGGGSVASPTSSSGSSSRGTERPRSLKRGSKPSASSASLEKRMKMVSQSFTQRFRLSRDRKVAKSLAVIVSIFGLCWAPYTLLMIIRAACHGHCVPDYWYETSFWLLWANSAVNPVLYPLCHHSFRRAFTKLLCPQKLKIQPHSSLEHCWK
T2 sequence (Q9QYN8 whole entry): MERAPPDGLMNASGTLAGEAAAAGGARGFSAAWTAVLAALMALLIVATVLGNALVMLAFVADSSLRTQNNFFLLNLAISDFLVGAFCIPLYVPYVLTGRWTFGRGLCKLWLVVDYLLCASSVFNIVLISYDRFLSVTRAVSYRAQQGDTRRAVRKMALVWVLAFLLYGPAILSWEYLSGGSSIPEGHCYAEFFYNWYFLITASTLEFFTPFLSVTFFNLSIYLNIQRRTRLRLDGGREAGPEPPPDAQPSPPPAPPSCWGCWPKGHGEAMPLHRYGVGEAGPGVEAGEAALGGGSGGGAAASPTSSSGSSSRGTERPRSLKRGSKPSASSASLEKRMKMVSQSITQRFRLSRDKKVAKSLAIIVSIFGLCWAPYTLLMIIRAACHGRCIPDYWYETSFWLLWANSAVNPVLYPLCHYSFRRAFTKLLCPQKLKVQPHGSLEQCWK

Row | SMILES | melting point | Ki [1, 7] | Ki [2, 8] | also measured
1 | CCOC1CCN(c2ccc3c(c2)COC2(CCN(C4CCC4)CC2)O3)CC1 [Example 431] | 266 to 269 °C |  |  | Ki [1, 3]: < 200 nM; Ki [2, 4]: < 200 nM
2 | Cc1c(-c2ccc3c(c2)COC2(CCN(C4CCC4)CC2)O3)c[nH]c(=O)c1C [Example 799] | 178 to 180 °C |  |  | Ki [1, 5]: < 200 nM; Ki [2, 6]: < 200 nM
3 | CC(=O)N(Cc1ccsc1)c1ccc2c(c1)COC1(CCN(C3CCC3)CC1)O2 [Example 352] | 101 to 102 °C | < 200 nM | < 200 nM | 
4 | CNC(=O)c1cc(COc2ccc3c(c2)CCC2(CCN(C4CCC4)CC2)O3)ccn1 [Example 292] | 141 to 143 °C | < 200 nM | < 200 nM | 
5 | OCCn1cc(-c2ccc3c(c2)CCC2(CCN(C4CCC4)CC2)O3)cn1 [Example 198] | 101 to 103 °C | < 200 nM | < 200 nM | 
6 | CN(C)C(=O)c1ccc(-c2ccc3c(c2)COC2(CCN(C4CCC4)CC2)O3)cc1F [Example 40] | 172.9 to 173.5 °C |  |  | Ki ([1]; Table A, human H3 binding, read-out: Human Ki): < 200 nM; Ki ([2]; Table A, rat H3 binding, read-out: Rat Ki): < 200 nM
7 | Cc1ncccc1-c1ccc2c(c1)COC1(CCN(C3CCC3)CC1)O2 [Example 744] | 197 to 199 °C |  |  | Ki [1, 5]: < 200 nM; Ki [2, 6]: < 200 nM
8 | O=c1cccnn1-c1ccc2c(c1)COC1(CCN(C3CCC3)CC1)O2 [Example 228] | 173 to 174 °C | 200 to 1000 nM | 200 to 1000 nM | 
9 | c1cnc(N2CCN(c3ccc4c(c3)CCC3(CCN(C5CCC5)CC3)O4)CC2)cn1 [Example 370] | 168 to 169 °C |  |  | Ki [1, 3]: < 200 nM; Ki [2, 4]: < 200 nM
10 | c1ccc(COc2ccc(-c3ccc4c(c3)COC3(CCN(C5CCC5)CC3)O4)cn2)cc1 [Example 529] | 139 to 141 °C |  |  | Ki ([1]; read-out: Human H3 Ki): < 200 nM; Ki ([2]; read-out: Rat H3 kI): 200 to 1000 nM
11 | COCCNC(=O)c1c(F)cc(-c2ccc3c(c2)CCC2(CCN(C4CCC4)CC2)O3)cc1F [Example 256] | 64.9 to 65.4 °C | < 200 nM | < 200 nM | 
12 | COC(c1ccc2c(c1)COC1(CCN(C3CCC3)CC1)O2)C1CCS(=O)(=O)CC1 (stereo not drawn) [Example 545] | 178 to 180 °C |  |  | Ki ([1]; read-out: Human H3 Ki): < 200 nM; Ki ([2]; read-out: Rat H3 kI): < 200 nM
13 | CC(C)OCCNC(=O)c1ccc(-c2ccc3c(c2)CCC2(CCN(C4CCC4)CC2)O3)cc1 [Example 312] | 135 to 137 °C | < 200 nM | < 200 nM | 
14 | O=C(Cc1cccnc1)Nc1ccc2c(c1)COC1(CCN(C3CCC3)CC1)O2 [Example 333] | 167 to 169 °C | < 200 nM | < 200 nM | 
15 | O=C(O)c1cc(-c2ccc3c(c2)COC2(CCN(C4CCC4)CC2)O3)cs1 [Example 570] | 230 to 240 °C (dec.) |  |  | Ki [1, 5]: < 200 nM; Ki [2, 6]: < 200 nM
16 | c1cc(CNc2ccc3c(c2)COC2(CCN(C4CCC4)CC2)O3)ccn1 [Example 247] | 45 to 48 °C | < 200 nM | < 200 nM | 
17 | CNC(=O)c1ccc(Oc2ccc3c(c2)CCC2(CCN(C4CCC4)CC2)O3)nc1 [Example 401] | 245 to 247 °C |  |  | Ki [1, 3]: < 200 nM; Ki [2, 4]: < 200 nM
18 | CN(C)C(=O)C1CCCN(c2ccc3c(c2)COC2(CCN(C4CCC4)CC2)O3)C1 (stereo not drawn) [Example 612] | 51.2 to 54.2 °C |  |  | Ki [1, 5]: < 200 nM; Ki [2, 6]: < 200 nM
19 | O=C(c1ccc(-c2ccc3c(c2)CCC2(CCN(C4CCC4)CC2)O3)cc1)N1CCC(O)CC1 [Example 206] | 90.4 to 92.6 °C | < 200 nM | < 200 nM | 
20 | CC(C)NC(=O)c1ccc(-c2ccc3c(c2)CCC2(CCN(C4CCC4)CC2)O3)cc1Cl [Example 587] | 155 to 156 °C |  |  | Ki [1, 5]: < 200 nM; Ki [2, 6]: < 200 nM
21 | c1cc2c(cc1OCC1CC1)CCC1(CCN(C3CCC3)C1)O2 (stereo not drawn) [Example 446] | 177 to 178 °C |  |  | Ki ([1]; read-out: Human H3 Ki): 200 to 1000 nM; Ki ([2]; read-out: Rat H3 kI): 200 to 1000 nM
22 | CNC(=O)c1ccc(-c2ccc3c(c2)COC2(CCN(C4CCC4)CC2)O3)s1 [Example 176] | 215 to 219 °C | < 200 nM | < 200 nM | 
23 | COCCNC(=O)c1ccc(-c2ccc3c(c2)CCC2(CCN(C4CCC4)CC2)O3)cc1Cl [Example 332] | 231 to 232 °C | < 200 nM | < 200 nM | 
24 | CS(=O)(=O)c1ccc(-c2ccc3c(c2)COC2(CCN(C4CCC4)CC2)O3)cc1Cl [Example 622] | 198 to 201 °C |  |  | Ki [1, 5]: < 200 nM; Ki [2, 6]: < 200 nM
25 | O=C(CCc1ccc2c(c1)COC1(CCN(C3CCC3)CC1)O2)NC1CCOCC1 [Example 645] | 167 to 169 °C |  |  | Ki [1, 5]: < 200 nM; Ki [2, 6]: 200 to 1000 nM
